Measurements as given in US10206399B2, “Herbicidal composition comprising uracil compound as active ingredient” (Dongbu Farm Hannong Co., Ltd., priority 2012, dated 2019).
Read-outs that look alike come from different tables or passages of the source.

How the values were obtained:
[1] = system: Alopecurus aequalis; test: Dry field farming herbicidal composition test, plant mortality; format: in vivo; details: in % (unit assumed)
Excerpt: (§1) X is % damage by uracil compound (a) of formula 1 at the rate of application of p kg/ha; Y is % damage by conventional herbicidal compound (b) at the rate of application of q kg/ha; and E is the expected damage caused by compounds (a) and (b) at a rate of application of p and q kg/ha.
(§2) The expected activity for a given combination of two herbicides can be calculated using equation 1 above.

[2] = system: Digitaria sanguinalis; details: for Digitaria sanguinalis mortality, measured value: 20 days after treatment
Excerpt: as §1, §2

[3] = system: Porippa islandica; test: Dry field farming herbicidal composition test, plant mortality; format: in vivo
Excerpt: as §1, §2

[4] = system: Echinochloa crus; details: for Echinochloa crus mortality, measured value: 20 days after treatment; for plant mortality, measured value: Echinochloa crus
Excerpt: as §1, §2

[5] = system: wheat; test: Dry field farming herbicidal composition test, plant mortality (crop)
Excerpt: as §1, §2

[6] = system: wild amaranth; test: Nonselective composition of 1 uracil compound and 2 herbicidally active compounds, plant mortality; format: in vivo; details: Amaranthus caudatus, 480 h; 8 g ai/ha; read-out: Wild amaranth mortality (measured value)
Excerpt: as §1, §2

[7] = system: Abutilon theophrasti; test: whole plant or invertebrate
Excerpt: as §1, §2

[8] = system: corn
[9] = system: Lamium amplexicaule; test: Dry field farming herbicidal composition test, plant mortality; format: in vivo; details: in % (unit assumed)
Excerpt: as §1, §2

[10] = system: Monochoria vaginalis; test: Paddy field farming herbicidal composition test, plant mortality; format: in vivo; details: Pontederia vaginalis, read-out: Monochoria vaginalis mortality (measured value)
Excerpt: as §1, §2

[11] = system: rice plant; test: Paddy field farming herbicidal composition test, plant mortality (crop)
Excerpt: as §1, §2

[12] = system: Echinochloa crus; test: Paddy field farming herbicidal composition test, plant mortality; format: in vivo; details: Echinochloa; 5 g/ha; read-out: Echinochloa crus mortality (measured value)
Excerpt: as §1, §2

[13] = system: Echinochloa crus; test: Dry field farming herbicidal composition test, plant mortality; format: in vivo
Excerpt: as §1, §2

[14] = system: Digitaria sanguinalis; test: as above; format: in vivo
Excerpt: as §1, §2

[15] = system: ryegrass; test: Nonselective composition of 1 uracil compound and 2 herbicidally active compounds, plant mortality; format: in vivo; details: 480 h; 8 g ai/ha; read-out: ryegrass mortality (measured value)
Excerpt: as §1, §2

[16] = system: Aeschynomene indica; test: Dry field farming herbicidal composition test, plant mortality; format: in vivo
Excerpt: as §1, §2

[17] = system: Abutilon theophrasti; test: as above; format: in vivo; details: Abutilon theophrasti, read-out: Abutilon theophrasti mortality, measured value
Excerpt: as §1, §2

[18] = system: Ludwigia prostrate; test: Paddy field farming herbicidal composition test, plant mortality; format: in vivo
Excerpt: as §1, §2

[19] = system: Capsella bursapastoris; test: Dry field farming herbicidal composition test, plant mortality; format: in vivo; details: in % (unit assumed)
Excerpt: as §1, §2

[20] = system: Aeschynomene indica; test: whole plant or invertebrate
Excerpt: as §1, §2

[21] = system: Xanthium spinosum; test: whole plant or invertebrate
Excerpt: as §1, §2

[22] = 480 h, read-out: Abutilon theophrasti mortality, measured value
[23] = 480 h, read-out: Aeschynomene indica mortality, measured value
[24] = read-out: plant mortality, measured value, 4 g/ha
[25] = read-out: plant mortality, measured value, 8 g/ha
[26] = read-out: plant mortality, measured value, 16 g/ha
[27] = 480 h, read-out: Xanthium spinosum mortality, measured value

Q: What does the source list for COC(=O)CCNC(=O)C(C)Sc1cc(-n2c(=O)cc(C(F)(F)F)n(C)c2=O)c(F)cc1Cl (stereo not drawn) [Compound 36, 3-[{2-[2-chloro-5-(3,6-dihydro-3-methyl-2,6-dioxo-4-trifluoromethyl-1(2H)-pyrimidinyl)-4-fluorophenylthio]-1-oxopropyl}amino]propionic acid methyl ester]?
A: Alopecurus aequalis mortality, measured value ([1]; 1 g/ha): 0; Alopecurus aequalis mortality, measured value ([1]; 2 g/ha): 0; Alopecurus aequalis mortality, measured value ([1]; 4 g/ha): 10; Data (measured value) Digitaria sanguinalis ([2]; 4 g/ha): 0; Digitaria sanguinalis mortality, measured value ([2]; 4 g/ha): 0%; plant mortality, measured value ([2]; 4 g/ha, Digitaria sanguinalis): 0; Digitaria sanguinalis mortality, measured value ([2]; 8 g/ha): 5%; Data (measured value) Digitaria sanguinalis ([2]; 16 g/ha): 15; Digitaria sanguinalis mortality, measured value ([2]; 16 g/ha): 16%; Data (measured value) Digitaria sanguinalis ([2]; 20 g/ha): 19; Digitaria sanguinalis mortality, measured value ([2]; 20 g/ha): 19%; Data (measured value) Digitaria sanguinalis ([2]; 40 g/ha): 43; Digitaria sanguinalis mortality, measured value ([2]; 40 g/ha): 43%; Data (measured value) Digitaria sanguinalis ([2]; 80 g/ha): 71; Digitaria sanguinalis mortality, measured value ([2]; 80 g/ha): 71%; Porippa islandica mortality, measured value ([3]; 1 g/ha): 10; Porippa islandica mortality, measured value ([3]; 2 g/ha): 30; Porippa islandica mortality, measured value ([3]; 4 g/ha): 55; Data (measured value) Echinochloa crus ([4]; 4 g/ha): 0; Echinochloa crus mortality, measured value ([4]; 4 g/ha): 0%; plant mortality, measured value ([4]; 4 g/ha): 0; Data (measured value) Echinochloa crus ([4]; 8 g/ha): 5; Echinochloa crus mortality, measured value ([4]; 8 g/ha): 5%; plant mortality, measured value ([4]; 8 g/ha): 5; Echinochloa crus mortality, measured value ([4]; 16 g/ha): 10%; Data (measured value) Echinochloa crus ([4]; 20 g/ha): 17; Echinochloa crus mortality, measured value ([4]; 20 g/ha): 17%; Data (measured value) Echinochloa crus ([4]; 40 g/ha): 37; Echinochloa crus mortality, measured value ([4]; 40 g/ha): 37%; Data (measured value) Echinochloa crus ([4]; 80 g/ha): 61; Echinochloa crus mortality, measured value ([4]; 80 g/ha): 61%; Wheat mortality, measured value ([5]; 1 g/ha): 0; Wheat mortality, measured value ([5]; 2 g/ha): 0; Wheat mortality, measured value ([5]; 4 g/ha): 1; pest or weed control at 8 g/ha [6]: 40%; mortality at 4 g/ha [7, 22]: 11%; mortality at 8 g/ha [7, 22]: 38%; mortality at 16 g/ha [7, 22]: 51%; mortality at 20 g/ha [7, 22]: 58%; mortality at 40 g/ha [7, 22]: 100%; mortality at 80 g/ha [7, 22]: 100%; pest or weed control at 4 g/ha ([7]; read-out: Data (measured value) Abutilon theophrasti, 4 g/ha): 15%; pest or weed control at 8 g/ha ([7]; read-out: Data (measured value) Abutilon theophrasti, 8 g/ha): 35%; pest or weed control at 16 g/ha ([7]; read-out: Data (measured value) Abutilon theophrasti, 16 g/ha): 47%; pest or weed control at 20 g/ha ([7]; read-out: Data (measured value) Abutilon theophrasti, 20 g/ha): 58%; pest or weed control at 40 g/ha ([7]; read-out: Data (measured value) Abutilon theophrasti, 40 g/ha): 100%; pest or weed control at 80 g/ha ([7]; read-out: Data (measured value) Abutilon theophrasti, 80 g/ha): 100%; Corn mortality, measured value ([8]; 1 g/ha): 0; Corn mortality, measured value ([8]; 2 g/ha): 0; Corn mortality, measured value ([8]; 4 g/ha): 1; Lamium amplexicaule mortality, measured value ([9]; 1 g/ha): 10; Lamium amplexicaule mortality, measured value ([9]; 2 g/ha): 30; Lamium amplexicaule mortality, measured value ([9]; 4 g/ha): 50; pest or weed control at […] ([10]; 2.5 g/ha): 5%; pest or weed control at 5 g/ha ([10]; 5 g/ha): 30%; pest or weed control at 10 g/ha ([10]; 10 g/ha): 50%; Rice plant mortality (measured value) ([11]; 5 g/ha): 0; Rice plant mortality (measured value) ([11]; 10 g/ha): 1; pest or weed control at 5 g/ha [12]: 0%; Echinochloa crus mortality, measured value ([13]; 4 g/ha): 5%; pest or weed control at 1 g/ha ([13]; Echinochloa, 1 g/ha, read-out: Echinochloa crus mortality, measured value): 0%; pest or weed control at 2 g/ha ([13]; Echinochloa, 2 g/ha, read-out: Echinochloa crus mortality, measured value): 0%; pest or weed control at 4 g/ha ([13]; Echinochloa, 4 g/ha, read-out: Echinochloa crus mortality, measured value): 5%; Digitaria sanguinalis mortality, measured value ([14]; 4 g/ha): 10%; pest or weed control at 1 g/ha ([14]; Digitaria sanguinalis, 1 g/ha, read-out: Digitaria sanguinalis mortality, measured value): 0%; pest or weed control at 2 g/ha ([14]; Digitaria sanguinalis, 2 g/ha, read-out: Digitaria sanguinalis mortality, measured value): 0%; pest or weed control at 4 g/ha ([14]; Digitaria sanguinalis, 4 g/ha, read-out: Digitaria sanguinalis mortality, measured value): 10%; pest or weed control at 8 g/ha [15]: 30%; Aeschynomene indica mortality, measured value ([16]; 1 g/ha): 10%; Aeschynomene indica mortality, measured value ([16]; 4 g/ha): 45%; pest or weed control at 1 g/ha ([16]; Aeschynomene indica, 1 g/ha, read-out: Aeschynomene indica mortality, measured value): 10%; pest or weed control at 2 g/ha ([16]; Aeschynomene indica, 2 g/ha, read-out: Aeschynomene indica mortality, measured value): 25%; pest or weed control at 4 g/ha ([16]; Aeschynomene indica, 4 g/ha, read-out: Aeschynomene indica mortality, measured value): 45%; pest or weed control at 1 g/ha ([17]; 1 g/ha): 15%; pest or weed control at 2 g/ha ([17]; 2 g/ha): 35%; pest or weed control at 4 g/ha ([17]; 4 g/ha): 50%; Ludwigia prostrate mortality (measured value) ([18]; 5 g/ha): 35%; Ludwigia prostrate mortality (measured value) ([18]; 10 g/ha): 55%; Capsella bursapastoris mortality, measured value ([19]; 1 g/ha): 5; Capsella bursapastoris mortality, measured value ([19]; 2 g/ha): 25; Capsella bursapastoris mortality, measured value ([19]; 4 g/ha): 45; mortality at 4 g/ha [20, 23]: 26%; mortality at 8 g/ha [20, 23]: 52%; mortality at 16 g/ha [20, 23]: 69%; mortality at 20 g/ha [20, 23]: 56%; mortality at 40 g/ha [20, 23]: 100%; mortality at 80 g/ha [20, 23]: 100%; pest or weed control at 4 g/ha ([20]; read-out: Data (measured value) Aeschynomene indica, 4 g/ha): 19%; pest or weed control at 8 g/ha ([20]; read-out: Data (measured value) Aeschynomene indica, 8 g/ha): 46%; pest or weed control at 16 g/ha ([20]; read-out: Data (measured value) Aeschynomene indica, 16 g/ha): 61%; pest or weed control at 20 g/ha ([20]; read-out: Data (measured value) Aeschynomene indica, 20 g/ha): 56%; pest or weed control at 40 g/ha ([20]; read-out: Data (measured value) Aeschynomene indica, 40 g/ha): 100%; pest or weed control at 80 g/ha ([20]; read-out: Data (measured value) Aeschynomene indica, 80 g/ha): 100%; pest or weed control at 4 g/ha [20, 24]: 20%; pest or weed control at 8 g/ha [20, 25]: 45%; pest or weed control at 16 g/ha [20, 26]: 65%; mortality at 4 g/ha [21, 27]: 21%; mortality at 8 g/ha [21, 27]: 42%; mortality at 16 g/ha [21, 27]: 56%; mortality at 20 g/ha [21, 27]: 51%; mortality at 40 g/ha [21, 27]: 90%; mortality at 80 g/ha [21, 27]: 100%; pest or weed control at 4 g/ha ([21]; read-out: Data (measured value) Xanthium spinosum, 4 g/ha): 24%; pest or weed control at 8 g/ha ([21]; read-out: Data (measured value) Xanthium spinosum, 8 g/ha): 59%; pest or weed control at 16 g/ha ([21]; read-out: Data (measured value) Xanthium spinosum, 16 g/ha): 79%; pest or weed control at 20 g/ha ([21]; read-out: Data (measured value) Xanthium spinosum, 20 g/ha): 51%; pest or weed control at 40 g/ha ([21]; read-out: Data (measured value) Xanthium spinosum, 40 g/ha): 90%; pest or weed control at 80 g/ha ([21]; read-out: Data (measured value) Xanthium spinosum, 80 g/ha): 100%; pest or weed control at 4 g/ha [21, 24]: 25%; pest or weed control at 8 g/ha [21, 25]: 50%; pest or weed control at 16 g/ha [21, 26]: 70%
